Data as given in PMC11823646, “Population pharmacokinetics of caspofungin in critically ill patients receiving extracorporeal membrane oxygenation—an ASAP ECMO study” (Antimicrobial Agents and Chemotherapy, 2024).

Tests used:
[1] = Population pharmacokinetics of caspofungin in critically ill patients receiving ECMO; type: in vivo, human
Procedure: The present analysis is part of the ASAP ECMO study program that was conducted from November 2012 to November 2019 ([8]). The ASAP ECMO study was a prospective, open-labeled multicenter pharmacokinetic study performed in six ICUs across Australia, New Zealand, South Korea, and Switzerland. A detailed study protocol has been previously described elsewhere ([8], [9]), and as such, is only briefly outlined in this paper.
Patients were eligible for recruitment if they were adult (18–90 years old) ICU patients who were receiving caspofungin while undergoing ECMO therapy for cardiac and/or respiratory failure. Patients were excluded if they required massive blood transfusion (i.e., >50% of blood volume in the preceding 8 hours), received therapeutic plasma exchange in the preceding 24 hours, had bilirubin >150 µmol/L, were pregnant, or were known to be allergic to caspofungin.
Caspofungin was reconstituted and administered as an intermittent intravenous infusion in accordance with the standard administration protocol at each participating center. Caspofungin dosing regimens, ECMO modalities/configurations, and all other subsequent patient management (e.g., RRT application) were determined by the treating clinician in accordance with local clinical guidelines and practices.
Pharmacokinetic sampling was performed during a single dosing interval once the patient had been stabilized on ECMO. Blood samples were drawn from an existing arterial line and were collected into lithium-heparinized tubes. Blood samples were collected at 0, 0.25, 0.5, 0.75, 1, 1.5, 2, 3, 6, 8, 12, and 24 hours after commencement of infusion.
The blood samples were centrifuged at 3,000 × g for 10 minutes to obtain plasma, which was then frozen at –80°C and stored locally at participating sites. The frozen plasma samples were shipped on dry ice by a commercial courier company to the central bioanalysis laboratory at the University of Queensland Centre for Clinical Research (UQCCR) for bioanalysis.
Total caspofungin concentrations in plasma were measured by a validated ultra-high performance liquid chromatography method on a Nexera X2 system connected to a Shimadzu 8030 + triple quadrupole mass spectrometer (Shimadzu Corporation, Kyoto, Japan). Dicloxacillin was used as the internal standard. The assay was performed in batches, and samples were analyzed concurrently with calibration standards and quality-control replicates at high (18 mg/L), medium (3 mg/L), and low (0.6 mg/L) concentrations. The assay limit for caspofungin in plasma was 0.1 mg/L and linearity was established within a range of 0.1–20 mg/L. Precision and accuracy at three different concentrations were all within 12%. Bioanalysis methods were performed in accordance with the U.S. Food and Drug Administration’s guidance for industry on bioanalysis ([10]).
Plasma concentration-time data for caspofungin were analyzed using a nonlinear mixed-effect modeling approach in Monolix version 2021R2 (Lixoft, Antony, France) implementing the stochastic approximation expectation maximization (SAEM) algorithm. Plasma concentration-time data for caspofungin were fitted to one- and two-compartment disposition models with first-order elimination. Between-subject variability (BSV or ω) was described using an exponential model: […]

[2] = human, in vivo; cited from earlier work
Text: It is challenging to ascertain the optimal dosing regimen for caspofungin based on MIC breakpoints. The European Committee on Antimicrobial Susceptibility Testing (EUCAST) MIC breakpoints have yet to be established for caspofungin against Candida spp. due to significant interlaboratory variation in MIC reporting ([18]). Until this problem is resolved, Candida isolates that are susceptible to anidulafungin and micafungin should also be considered susceptible to caspofungin.

[3] = human, in vivo; cited from earlier work; remark: listed apart in the source
[4] = design: method as in PMID 17660480, PMID 11850256; details: human, in vivo; cited from earlier work

CC[C@H](C)C[C@H](C)CCCCCCCCC(=O)N[C@H]1C[C@@H](O)[C@@H](NCCN)NC(=O)[C@@H]2[C@@H](O)CCN2C(=O)[C@H]([C@H](O)CCN)NC(=O)[C@H]([C@H](O)[C@@H](O)c2ccc(O)cc2)NC(=O)[C@@H]2C[C@@H](O)CN2C(=O)[C@H]([C@@H](C)O)NC1=O [caspofungin]
impact of ECMO on caspofungin pharmacokinetics ([1]; ECMO duration, mode and flow rate tested as covariates, no significant effect): negligible impact
LBW effect on V, Estimate (%RSE) ([1]; exponent in V=Vpop × (LBW/58.9)^1.24, final model): 1.24 (23.3)
AUC(0-t) ([1]; human, plasma, 8 critically ill patients on ECMO, maintenance dose 50 or 70 mg daily IV, median, read-out: median AUC0–24 exposure): 115 µg·h/mL
CL, Estimate (%RSE) ([1]; typical population value, final one-compartment model with first-order elimination, 8 ECMO patients, 64 total plasma concentrations (UHPLC-MS/MS), IV infusion, LD 70 mg then 50 or 70 mg daily): 0.55 (11.9) L/h
V, Estimate (%RSE) ([1]; typical population value, final one-compartment model, LBW centred on 58.9 kg, 8 ECMO patients, 64 total plasma concentrations): 8.13 (7.15) L
dose demonstrated to be safe [2]: up to 200 mg/day
AUC0–24 exposure reported in ICU patients [3]: 74 to 135 µg·h/mL
typical clearance in other studies [3]: 0.27 to 0.98 L/h
typical volume of distribution in other studies [3]: 6.19 to 20.91 L
AUC0–24 exposure in healthy volunteers [4]: 98 µg·h/mL
